How the values were obtained:
[1] = Chemical stability test of solubilized docetaxel by HPLC; type: physicochemical; conditions: vial of Example 3, solubilizing composition with 15% DMA, 25° C., 60% relative humidity
Procedure: The vial of Example 3 containing a solubilizing composition of 15% DMA was subjected to a chemical stability test described as follows:
Immediately after solubilizing docetaxel and at periods of 2, 4, 6 and 8 hours starting from that moment, a sample is taken from the vial using a disposable syringe (1 ml, Darling) with a disposable hypodermic needle (50×8-21Gx2, Neojet). The volume of the sample was 0.5 ml and each sample was weighed and diluted up to a final volume of 10 ml with the mobile phase to be used in HPLC. Reconstituted material remained in a chamber at 25° C. and 60% room relative humidity during the test time.
Mobile phase: Filtered and deaerated mixture of acetonitrile, Methanol, water (26:32:42 v:v:v). The column used was Beckman stainless steel (Ultrasphere ODS of 4.6 mm×25 cm, 5 μm, part N° 235329). The guard column used was Beckman (Ultrasphere ODS of 4.6 mm×4.5 cm, 5 μm, part N° 243533). The detector used was UV type, Waters 2487 dual and the measure was done at wave length 232 nm. The volume injected was 20 μl, using a Waters 717 plus autosampler, and samples were maintained in the autosampler at 4° C. after preparation until the moment of being injected. Retention time for docetaxel is approximately 25 min and run time is 90 min. Flow rate remained 1.0 ml/min using a Waters 1525 binary pump for HPLC. The software used was Breeze version 3.30. The column temperature was 40° C. A standard for the assessment and determination of related substances was prepared, weighing exactly 20 mg of standard docetaxel in a volumetric flask of 50 ml; it was dissolved with 5 ml ethanol and was diluted up to final volume with mobile phase. A solution of impurity 10-deacethilbaccatine III was prepared in order to detect and quantify it in a chromatogram, weighing 5 mg of 10-deacethilbaccatine III, dissolving with 1 ml ethanol and diluting up to final volume, 10 ml, with mobile phase in a volumetric flask. In the same way, a solution of impurity 7-epi-docetaxel was prepared, weighing 10 mg of docetaxel, 10 ml of NaOH 0.005 N were added. It was left to stand for 2 hours; 2.5 ml of ethanol were added and it was diluted to final volume, 25 ml with mobile phase.

[2] = Laboratory solubility tests of docetaxel API versus lyophilized solid composition in tensoactives; type: physicochemical; conditions: for solubility in a tensoactive aqueous solution: direct dissolution

Docetaxel concentration (percentage of area ratio) ([1]; time 0 hours)	Docetaxel concentration (percentage of area ratio) ([1]; time 2 hours)	Docetaxel concentration (percentage of area ratio) ([1]; time 4 hours)	Docetaxel concentration (percentage of area ratio) ([1]; time 6 hours)	Docetaxel concentration (percentage of area ratio) ([1]; time 8 hours)	solubility in pure polysorbate 80 [2]	solubility in a tensoactive aqueous solution [2]	Compound
99.61 percentage of area ratio	99.59 percentage of area ratio	99.57 percentage of area ratio	99.57 percentage of area ratio	99.54 percentage of area ratio			CC(=O)O[C@@]12CO[C@@H]1C[C@H](O)[C@@]1(C)C(=O)[C@H](O)C3=C(C)[C@@H](OC(=O)[C@H](O)[C@@H](NC(=O)OC(C)(C)C)c4ccccc4)C[C@@](O)([C@@H](OC(=O)c4ccccc4)[C@H]21)C3(C)C [Docetaxel]
					very difficultly	cannot be dissolved directly	CC(=O)O[C@@]12CO[C@@H]1C[C@H](O)[C@@]1(C)C(=O)[C@H](O)C3=C(C)[C@@H](OC(=O)[C@H](O)[C@@H](NC(=O)OC(C)(C)C)c4ccccc4)C[C@@](O)([C@@H](OC(=O)c4ccccc4)[C@H]21)C3(C)C [anhydrous docetaxel]
					very difficultly	cannot be dissolved directly	CC(=O)O[C@@]12CO[C@@H]1C[C@H](O)[C@@]1(C)C(=O)[C@H](O)C3=C(C)[C@@H](OC(=O)[C@H](O)[C@@H](NC(=O)OC(C)(C)C)c4ccccc4)C[C@@](O)([C@@H](OC(=O)c4ccccc4)[C@H]21)C3(C)C.O.O.O [trihydrate docetaxel]

From patent publication US20100255104A1, “PHARMACEUTICAL FORMULATION OF TAXANE” (ERIOCHEM S.A., priority 2007, published 2010)
